Measurements as given in patent publication US20070269843A1, “Diagnostic Assays That Use Mycobacteriophages” (priority 2004, published 2007).
Where “and” joins values, the source holds several entries; their conditions need not be identical. Equal entries are not always repeated. Structures can show the parent of a compound that is named as a salt. Where two headings read alike, the source gives them in different places.

Legend:
[1] = cited from earlier work
[2] = tested on: Mycobacterium tuberculosis ATCC 27294; experiment: FASTPlaqueTB (FPTB) plaque assay after timed exposure of M. tuberculosis to CB-18 (Example 1); type: cell-based; conditions: for Plaque formation following infection in Tris buffer and no pre-culture / Plaque formation following overnight pre-culture in FPTB nutrient broth: duplicates a, b
Method: In an effort to establish the effect of exposure to CB-18 on the M. tuberculosis type strain ATCC 27294, and any relationship of such an effect to time, the following experiment was performed using the FASTPlaqueTB™ (FPTB) assay manufactured by Biotec Laboratories Ltd (Ipswich, Suffolk, U.K.): A 0.5 MacFarland stock of M. tuberculosis was manufactured as described by Thornton, C. G., et al, Jour. Clin. Microbiol. 36:2004-2013 (1998), and a 1 ml portion were transferred to a 50 ml conical tubes containing 50 mM Tris-HCl pH 7.5 @ 25° C., 66 mM NaCl, 1 mM CB-18, and 0.025% N-acetyl-L-cysteine (NALC). From this tube was taken duplicate 500 μl aliquots at 0, 30, 60, 120, and 180 minutes and immediately serially diluted 400-fold to form two dilution series. In the first series (FIG. 1a), serial dilutions were made in nutrient broth (i.e., FPTB broth) provided by the manufacturer. In the second series (FIG. 1b), serial dilutions were made in a 50 mM Tris-HCl pH 7.5 @ 25° C., 66 mM NaCl buffer that had been supplemented with calcium chloride (CaCl2) to a final concentration of 2 mM.
The first series of time point-dilutions were then incubated at 37° C. overnight in FPTB broth prior to being assayed with the FPTB plaque assay. The second series of time point-dilutions were immediately subjected to analysis using the FPTB plaque assay.

[3] = tested on: Mycobacterium tuberculosis ATCC 27294; experiment: FPTB plaque assay with CB-18 present during infection (Example 2); type: cell-based; conditions: for Plaque formation following infection in Tris buffer and no pre-culture / Plaque formation following overnight pre-culture in FPTB nutrient broth: duplicates a, b; for Concentration present during infection that does not interfere with the assay: M. tuberculosis ATCC 27294
M. tuberculosis = experiment: FPTB plaque assay after exposure to CB-18 with carry-over into the infection buffer (Example 3); type: cell-based, Mycobacterium tuberculosis; conditions: 1 mM CB-18, 90 minutes at 37° C.; replicates 1-3, tubes a, b
Method: To examine the effects of both exposing M. tuberculosis to CB-18, and having CB-18 carried over into the infection buffer, the following experiment was performed: A 0.5 MacFarland stock of M. tuberculosis was manufactured as described by Thornton, C. G., et al, Jour. Clin. Microbiol. 36:2004-2013 (1998), and a 0.5 ml portions were transferred to quadruplicate 50 ml conical tubes (FIG. 3). One pair of tubes simply contained 50 mM Tris-HCl pH 7.5 @ 25° C., 66 mM NaCl, and 0.025% NALC, while the other pair of tubes contained the same buffer supplemented with 1 mM CB-18. All tubes were incubated for 90 minutes at 37° C. and then diluted with sterile water to a final volume of 50 ml. In those tubes without CB-18 present, duplicate 250 μl portions were added directly to 1 ml of FPTB nutrient broth. From those tubes that contained CB-18, triplicate 250 μl portions were added to 50 mM Tris-HCl pH 7.5 @ 25° C., 66 mM NaCl, 2 mM CaCl2 buffer. All tubes were then immediately subjected to analysis using the FPTB plaque assay (i.e., the plaque assay was performed without pre-culture).

[4] = tested on: M. tuberculosis type strain ATCC 27294; conditions: cited from earlier work
[5] = tested on: mycobacteriophage D-29 in M. tuberculosis; conditions: cited from earlier work
[6] = 1 mM CB-18, time of exposure 0 min
[7] = 1 mM CB-18, time of exposure 30 min
[8] = 1 mM CB-18, time of exposure 60 min
[9] = 1 mM CB-18, time of exposure 120 min
[10] = 1 mM CB-18, time of exposure 180 min

SMILES: NC(=O)CNCCS(=O)(=O)O [ACES, N-(2-Acetamido)-2-aminoethanesulfonic acid]
- pKa [1]: 6.78

SMILES: NC(=O)CN(CC(=O)O)CC(=O)O [ADA, N-(2-Acetamido)iminodiacetic acid]
- pKa [1]: 6.59

SMILES: CCCCCCCCCCCCCCCCCC[N+](C)(C)CCCC(=O)[O-] [CB-18, N-(3-carboxypropyl)-N,N-dimethyl-1-octadecanaminium, inner salt]
- Plaque formation following infection in Tris buffer and no pre-culture [2, 6]: 132 and 121
- Plaque formation following overnight pre-culture in FPTB nutrient broth [2, 6]: >300
- Plaque formation following infection in Tris buffer and no pre-culture [2, 7]: 145 and 167
- Plaque formation following overnight pre-culture in FPTB nutrient broth [2, 7]: >300
- Plaque formation following infection in Tris buffer and no pre-culture [2, 8]: 100 and 90
- Plaque formation following overnight pre-culture in FPTB nutrient broth [2, 8]: >300
- Plaque formation following infection in Tris buffer and no pre-culture [2, 9]: 155 and 140
- Plaque formation following overnight pre-culture in FPTB nutrient broth [2, 9]: >300
- Plaque formation following infection in Tris buffer and no pre-culture [2, 10]: 213 and 221
- Plaque formation following overnight pre-culture in FPTB nutrient broth [2, 10]: >300
- Effect of exposure on D-29 mycobacteriophage plaque assay ([2]; 1 mM CB-18 for 30, 60, 120, and 180 minutes): no deleterious effects
- Plaque formation following infection in Tris buffer and no pre-culture ([3]; CB-18 5 μg/ml present during infection): 171 and 191
- Plaque formation following overnight pre-culture in FPTB nutrient broth ([3]; CB-18 5 μg/ml): >300
- Plaque formation following infection in Tris buffer and no pre-culture ([3]; CB-18 10 μg/ml present during infection): 204 and 186
- Plaque formation following overnight pre-culture in FPTB nutrient broth ([3]; CB-18 10 μg/ml): >300
- Plaque formation following infection in Tris buffer and no pre-culture ([3]; CB-18 20 μg/ml present during infection): 181 and 198
- Plaque formation following overnight pre-culture in FPTB nutrient broth ([3]; CB-18 20 μg/ml): >300
- Plaque formation following overnight pre-culture in FPTB nutrient broth ([3]; CB-18 40 μg/ml): >300
- Concentration present during infection that does not interfere with the assay [3]: ≤ 20 µg/mL
- Concentration present during infection that does not interfere with the assay ([3]; conversion of 20 μg/ml): ≤ 52 µM
- Plaque formation following processing in CB-18, no pre-culture, and infection in Tris-CaCl2 buffer (M. tuberculosis): >300
- Growth characteristics in culture media ([4]; CB-18 present at 20 μg/ml in the culture media): significantly affected
- Tuberculocidal activity ([4]; time-dependent killing): has tuberculocidal activity

SMILES: O=S(=O)(O)CCCCN1CCN(CCO)CC1 [HEPBS, N-(2-Hydroxyethyl)piperazine-N′-(4-butanesulfonic acid)]
- pKa [1]: 8.30

SMILES: O=S(=O)(O)CCCCN1CCOCC1 [MOBS, 4-(N-Morpholino)butanesulfonic acid]
- pKa [1]: 7.60

SMILES: O=S(=O)(O)CCN1CCN(CCS(=O)(=O)O)CC1 [PIPES, piperazine-1,4-bis(2-ethanesulfonic acid)]
- pKa [1]: 6.76

SMILES: O=S(=O)(O)CC(O)CN1CCN(CC(O)CS(=O)(=O)O)CC1 (stereo not shown) [POPSO, piperazine-N,N′-bis(2-hydroxypropanesulfonic acid)]
- pKa [1]: 7.80

SMILES: CCCCCCCC/C=C\CCCCCCCC(=O)OCCOCC(OCCO)C1OCC(OCCO)C1OCCO (stereo not shown) [Tween 80]
- Concentration above which propagation of mycobacteriophage D-29 in M. tuberculosis is interfered with [5]: above 0.0012%
- Concentration above which propagation of mycobacteriophage D-29 in M. tuberculosis is interfered with ([5]; printed as conversion of […]): > 1 EM
